Source: patent publication US7713994B2 (Wyeth LLC, priority 2005, dated 2010)

Legend:
cyclin D1/cdk 4 enzyme = biological target: T1, cyclin D1/cdk 4 enzyme (Homo sapiens, UniProt P11802); assay: CDK4 ELISA kinase assay (phospho-Rb ser 795 detection); type: biochemical; conditions: In Vitro Enzyme Assays, 200 μM ATP, read-out: CDK4 IC50
T1 construct: made in house; host or cells: Sf9 insect cells, recombinant baculovirus
Outline: (§1)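 GST-Rb C-terminal fragment coated on plates; partially purified Sf9-expressed cyclin D1/CDK4, cyclin E/CDK2 or cyclin B/CDK1 with 200 μM ATP, pH 7.5 HEPES/MgCl2 buffer, 1 h at 30 °C; screen compound final 10 μg/ml. Phospho-Rb Ser795 detected by antibody ELISA (TMB, A450); % of control, IC50 from background-subtracted inhibition curves.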

cyclin E/CDK2 enzyme = biological target: T2, cyclin E/CDK2 enzyme (Homo sapiens, UniProt P24941); assay: CDK2 ELISA kinase assay (phospho-Rb ser 795 detection); type: biochemical; conditions: In Vitro Enzyme Assays, read-out: CDK2 IC50
T2 construct: made in house; host or cells: Sf9 insect cells, recombinant baculovirus
Outline: as §1

cyclin B/CDK1 enzyme = biological target: T3, cyclin B/CDK1 enzyme (Homo sapiens, UniProt P06493); assay: CDK1 ELISA kinase assay (phospho-Rb ser 795 detection); type: biochemical; conditions: In Vitro Enzyme Assays, read-out: CDK1 IC50
T3 construct: purchased New England BioLabs; host or cells: Sf9 insect cells, recombinant baculovirus
T3 sequence (P06493 whole entry): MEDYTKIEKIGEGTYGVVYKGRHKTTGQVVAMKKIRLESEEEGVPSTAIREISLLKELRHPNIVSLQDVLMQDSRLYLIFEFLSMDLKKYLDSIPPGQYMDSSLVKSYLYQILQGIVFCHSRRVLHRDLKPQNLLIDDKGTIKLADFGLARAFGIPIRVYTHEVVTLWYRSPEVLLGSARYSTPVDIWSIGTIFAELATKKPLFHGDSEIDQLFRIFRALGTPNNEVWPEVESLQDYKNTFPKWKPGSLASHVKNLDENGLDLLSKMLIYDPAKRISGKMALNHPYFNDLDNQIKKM
T3 sequence (P14635 whole entry partner): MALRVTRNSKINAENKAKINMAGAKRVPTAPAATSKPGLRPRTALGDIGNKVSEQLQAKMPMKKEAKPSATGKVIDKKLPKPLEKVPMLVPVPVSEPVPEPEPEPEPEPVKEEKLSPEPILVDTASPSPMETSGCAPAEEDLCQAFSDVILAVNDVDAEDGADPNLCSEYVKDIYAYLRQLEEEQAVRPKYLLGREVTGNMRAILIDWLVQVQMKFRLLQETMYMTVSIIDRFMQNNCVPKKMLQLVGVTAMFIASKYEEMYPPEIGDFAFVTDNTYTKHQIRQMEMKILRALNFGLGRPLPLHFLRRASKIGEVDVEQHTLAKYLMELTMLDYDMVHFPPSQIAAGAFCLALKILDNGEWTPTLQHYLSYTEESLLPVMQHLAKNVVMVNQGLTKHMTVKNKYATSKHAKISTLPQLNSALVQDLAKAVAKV
Outline: as §1

BT474 = assay: Cytotoxicity assay (SRB), BT474; type: cell-based; conditions: Homo sapiens, BT-474, 144 h, BT474 cells, SRB, 6 days; read-out: In Vitro Cellular Activity IC50 BT474
Outline: (§2)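 Seeding: BT474 12000, HCT-116 4000, LoVo 6000, MCF-7 6000 cells/well; overnight attachment, 37 °C, 7% CO2. Drug exposure 3 d (BT474 6 d), RPMI 1640 + 5% FBS. Readout: TCA fix, 0.4% SRB, Tris solubilisation, A540.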

HCT-116 = assay: Cytotoxicity assay (SRB), HCT-116; type: cell-based; conditions: Homo sapiens, HCT-116, 72 h, HCT116 cells, SRB, three days; read-out: In Vitro Cellular Activity IC50 HCT116
Outline: as §2

LoVo = assay: Cytotoxicity assay (SRB), LoVo; type: cell-based; conditions: Homo sapiens, LoVo, 72 h, LoVo cells, SRB, three days; read-out: In Vitro Cellular Activity IC50 LOVO
Outline: as §2

MCF-7 = assay: Cytotoxicity assay (SRB), MCF-7; type: cell-based; conditions: Homo sapiens, MCF7, 72 h, MCF-7 cells, SRB, three days; read-out: In Vitro Cellular Activity IC50 MCF-7
Outline: as §2

T1 sequence (P11802 whole entry, species assumed): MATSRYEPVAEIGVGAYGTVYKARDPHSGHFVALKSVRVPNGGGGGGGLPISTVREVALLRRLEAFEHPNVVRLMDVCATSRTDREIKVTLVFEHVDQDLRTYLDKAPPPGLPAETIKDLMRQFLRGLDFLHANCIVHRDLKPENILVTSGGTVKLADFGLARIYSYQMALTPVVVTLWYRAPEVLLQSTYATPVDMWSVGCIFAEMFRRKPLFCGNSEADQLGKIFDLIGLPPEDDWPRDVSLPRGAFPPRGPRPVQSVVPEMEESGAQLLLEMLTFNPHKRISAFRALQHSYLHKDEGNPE
T1 sequence (P24385 whole entry partner, species assumed): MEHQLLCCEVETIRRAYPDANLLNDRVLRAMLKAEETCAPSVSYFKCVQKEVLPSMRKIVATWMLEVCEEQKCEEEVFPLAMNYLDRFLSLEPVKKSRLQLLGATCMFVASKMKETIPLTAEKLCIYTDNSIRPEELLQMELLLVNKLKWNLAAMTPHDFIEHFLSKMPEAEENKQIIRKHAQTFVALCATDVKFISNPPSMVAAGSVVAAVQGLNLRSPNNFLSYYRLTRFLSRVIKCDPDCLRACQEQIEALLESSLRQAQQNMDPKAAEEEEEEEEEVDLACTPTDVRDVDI

IC50 (cyclin D1/cdk 4 enzyme) | IC50 (cyclin E/CDK2 enzyme) | IC50 (cyclin B/CDK1 enzyme) | melting point | SMILES | IC50 (BT474) | IC50 (HCT-116) | IC50 (LoVo) | IC50 (MCF-7)
9.4 µM | > 50 µM | > 50 µM | 167 to 168 °C | O=C1NC(=O)c2ccc(Br)cc2/C1=C/c1cc(Br)c(O)c(Br)c1 [Example 94, (4Z)-6-Bromo-4-(3,5-dibromo-4-hydroxybenzylidene)isoquinoline-1,3(2H,4H)-dione] | 2 µM | 3.4 µM | 6.4 µM | 2.3 µM
1 µM | 6.7 µM | > 50 µM | 224 to 225 °C | O=Cc1sccc1-c1ccc2c(c1)/C(=C/Nc1ccc(CN3CCCCC3)cc1)C(=O)NC2=O [Example 97] | 3.1 µM | 1.5 µM | 1.9 µM | 2.8 µM
0.34 µM | > 50 µM | > 50 µM | 240 to 241 °C | COc1cc(CN/C=C2\C(=O)NC(=O)c3ccc(-c4ccc(Oc5ccccc5)cc4)cc32)cc(O)c1OC [Example 100, (4Z)-6-(4-Phenoxyphenyl)-4-{[(3-hydroxy-4,5-dimethoxybenzyl)amino]methylene}isoquinoline-1,3(2H,4H)-dione] | 8.8 µM | 13.6 µM | 27.8 µM | 11 µM
24.3 µM | > 50 µM | > 50 µM | 156 to 156.5 °C | O=C1NC(=O)c2ccc(Br)cc2/C1=C/N1CCN(CCN2CCOCC2)CC1 [Example 105, (4Z)-6-Bromo-4-{[4-(2-morpholin-4-ylethyl)piperazin-1-yl]methylene}isoquinoline-1,3(2H,4H)-dione] | 36.9 µM | 42.6 µM | 42.9 µM | > 50 µM
31.5 µM | > 50 µM | > 50 µM | 166 to 167 °C | CN(C)CCN1CCN(/C=C2\C(=O)NC(=O)c3ccc(Br)cc32)CC1 [Example 106, (4Z)-6-Bromo-4-({4-[2-(dimethylamino)ethyl]piperazin-1-yl}methylene)isoquinoline-1,3(2H,4H)-dione] | 44.6 µM | > 50 µM | > 50 µM | > 50 µM
2.9 µM | > 50 µM | 3.8 µM | 268 to 269 °C | O=C1NC(=O)c2ccc(/C=C/CCCCl)cc2/C1=C/Nc1ccc(CN2CCCCC2)cc1 [Example 112, (4Z)-6-[(1E)-5-Chloropent-1-enyl]-4-({[4-(piperidin-1-ylmethyl)phenyl]amino}methylene)isoquinoline-1,3(2H,4H)-dione] | 2.3 µM | 0.98 µM | 1.9 µM | 3.3 µM
0.02 µM | 37.2 µM | 47.6 µM | 240 to 241 °C | COc1cc(CN/C=C2\C(=O)NC(=O)c3ccc(-c4ccc(Cl)cc4)cc32)cc(O)c1OC [Example 113, (4Z)-6-(4-Chlorophenyl)-4-{[(3-hydroxy-4,5-dimethoxybenzyl)amino]methylene}isoquinoline-1,3(2H,4H)-dione] | 11 µM | 5.8 µM | 2.9 µM | 6.2 µM
0.04 µM | 1.6 µM | 16.1 µM | 250 to 251 °C | Nc1ccc(CN/C=C2\C(=O)NC(=O)c3ccc(I)cc32)cc1O [Example 122, (4Z)-4-{[(4-Amino-3-hydroxybenzyl)amino]methylene}-6-iodoisoquinoline-1,3(2H,4H)-dione] | 5.2 µM | 7.5 µM | 9.9 µM | 17 µM
44.4 µM | > 50 µM | > 50 µM | 159 to 160 °C | O=C1NC(=O)c2ccc(-c3ccc(CN4CCCCC4)cc3)cc2C1=CNc1ccc(CN2CCCCC2)cc1 [Example 125, 6-(4-Piperidin-1-ylmethyl-phenyl)-4-[(4-piperidin-1-ylmethyl-phenylamino)-methylene]-4H-isoquinoline-1,3-dione] | 3.9 µM | 1.2 µM | 1.1 µM | 1.8 µM
0.66 µM | 10 µM | > 50 µM | 186 to 187 °C | O=C1NC(=O)c2ccc(I)cc2/C1=C/Nc1ccc(CN2CCCC2)cc1 [Example 126] | 0.9 µM | 3.4 µM | 5.1 µM | 2.3 µM
0.37 µM | > 50 µM | > 50 µM | 152 to 153 °C | O=C1NC(=O)c2ccc(-c3ccc(F)cc3)cc2/C1=C/Nc1ccc(CN2CCCC2)cc1 [Example 127, (4Z)-6-(4-Fluorophenyl)-4-({[4-(pyrrolidin-1-ylmethyl)phenyl]amino}methylene)isoquinoline-1,3(2H,4H)-dione] | 1.4 µM | 1.3 µM | 2.9 µM | 1.4 µM
0.04 µM | 13.2 µM | > 50 µM | 227 to 228 °C | Nc1ccc(CN/C=C2\C(=O)NC(=O)c3ccc(-c4ccc(F)cc4)cc32)cc1O [Example 134, (4Z)-4-{[(4-Amino-3-hydroxybenzyl)amino]methylene}-6-(4 fluorophenyl)isoquinoline-1,3(2H,4H)-dione] | 11 µM | 13 µM | 11 µM | 12 µM
0.005 µM | 0.43 µM | 4 µM | 252 to 253 °C | COc1ccc(CN/C=C2\C(=O)NC(=O)c3ccc(-c4cn[nH]c4)cc32)cc1O [Example 136, (4Z)-4-{[(3-Hydroxy-4-methoxybenzyl)amino]methylene}-6-(1H-pyrazol-4-yl)isoquinoline-1,3(2H,4H)-dione] | 16 µM | 25 µM | 36 µM | 48 µM
0.69 µM | 33.9 µM | > 50 µM | 212 to 213 °C | CC(C)Oc1ccc(CN/C=C2\C(=O)NC(=O)c3ccc(Br)cc32)cc1O [Example 137, (4Z)-6-Bromo-4-{[(3-hydroxy-4-isopropoxybenzyl)amino]methylene}isoquinoline-1,3(2H,4H)-dione] | 3.3 µM | 4.4 µM | 5.8 µM | 17 µM
0.14 µM | > 50 µM | > 50 µM | 157 to 158 °C | CC1CCCN1Cc1ccc(N/C=C2\C(=O)NC(=O)c3ccc(I)cc32)cc1 (centres unmarked) [Example 138, (4Z)-6-Iodo-4-[({4-[(2-methylpyrrolidin-1-yl)methyl]phenyl}amino)methylene]isoquinoline-1,3(2H,4H)-dione] | 0.41 µM | 3.7 µM | 4.9 µM | 1.2 µM
0.19 µM | > 50 µM | > 50 µM | 264 to 265 °C | CC(=O)Nc1ccc(CN/C=C2\C(=O)NC(=O)c3ccc(Br)cc32)cc1OC(C)=O [Example 141, 2-(Acetylamino)-5-({[(Z)-(6-bromo-1,3-dioxo-2,3-dihydroisoquinolin-4(1H)-′ylidene)methyl]amino}methyl)phenyl acetate] | 0.56 µM | 0.84 µM | 1.3 µM | 16 µM
1.9 µM | > 50 µM | > 50 µM | 298 to 299 °C (dec.) | Cl.O=C1NC(=O)c2ccc(Br)cc2C1=NNc1ccc(CN2CCCCC2)cc1 [Example 144, 6-Bromo-4-[(4-piperidin-1-ylmethyl-phenyl)-hydrazono]-4H-isoquinoline-1,3-dione Hydrochloride] | 3.2 µM | 1.5 µM | 3.2 µM | 3.2 µM
0.1 µM | 8.6 µM | > 50 µM | 264 to 265 °C | CC(=O)Nc1ccc(CN/C=C2\C(=O)NC(=O)c3ccc(I)cc32)cc1OC(C)=O [Example 146, 2-(Acetylamino)-5-({[(Z)-(6-iodo-1,3-dioxo-2,3-dihydroisoquinolin-4(1H)-′ylidene)methyl]amino}methyl)phenyl acetate] | 0.49 µM | 0.66 µM | 0.86 µM | 2.7 µM
0.06 µM | > 50 µM | 36.3 µM | 164 to 168 °C (dec.) | O=C1NC(=O)c2ccc(-c3ccsc3)cc2C1=NNc1ccc(CN2CCCCC2)cc1 [Example 152, 4-[(4-Piperidin-1-ylmethyl-phenyl)-hydrazono]-6-thiophen-3-yl-4H-isoquinoline-1,3-dione] | 3.4 µM | 2.8 µM | 6.6 µM | 6.2 µM
